From US12435059B2, “AMP-activated protein kinase inhibitors and methods of making and using the same” (The Regents of the University of Colorado, priority 2019, dated 2025)
Like-named read-outs stand apart in the source and are kept apart here.

Experiments:
[1] = target: 468 kinases (Homo sapiens, UniProt O43283); assay: biochemical; type: binding; conditions: LZK; read-out: % Inhibition @ 100 nM
[2] = target: 468 kinases (Homo sapiens, UniProt O96013); assay: biochemical; type: binding; conditions: PAK4; read-out: % Inhibition @ 100 nM
[3] = target: 468 kinases (Homo sapiens, UniProt P00519, E255K); assay: biochemical; type: binding; conditions: ABL1 (E255K)-phosphorylated; read-out: % Inhibition @ 100 nM
[4] = target: 468 kinases (Homo sapiens, UniProt P00519, T315I); assay: biochemical; type: binding; conditions: read-out: % Inhibition @ 100 nM
[5] = target: 468 kinases (Homo sapiens, UniProt P00519, Y253F); assay: biochemical; type: binding; conditions: ABL1 (Y253F)-phosphorylated; read-out: % Inhibition @ 100 nM
[6] = target: 468 kinases (Homo sapiens, UniProt P07949, V804L); assay: biochemical; type: binding; conditions: RET(V804L); read-out: % Inhibition @ 100 nM
468 kinases (Homo sapiens, UniProt P07949, V804L), sequence (P07949 29-1114 V804L limits assumed): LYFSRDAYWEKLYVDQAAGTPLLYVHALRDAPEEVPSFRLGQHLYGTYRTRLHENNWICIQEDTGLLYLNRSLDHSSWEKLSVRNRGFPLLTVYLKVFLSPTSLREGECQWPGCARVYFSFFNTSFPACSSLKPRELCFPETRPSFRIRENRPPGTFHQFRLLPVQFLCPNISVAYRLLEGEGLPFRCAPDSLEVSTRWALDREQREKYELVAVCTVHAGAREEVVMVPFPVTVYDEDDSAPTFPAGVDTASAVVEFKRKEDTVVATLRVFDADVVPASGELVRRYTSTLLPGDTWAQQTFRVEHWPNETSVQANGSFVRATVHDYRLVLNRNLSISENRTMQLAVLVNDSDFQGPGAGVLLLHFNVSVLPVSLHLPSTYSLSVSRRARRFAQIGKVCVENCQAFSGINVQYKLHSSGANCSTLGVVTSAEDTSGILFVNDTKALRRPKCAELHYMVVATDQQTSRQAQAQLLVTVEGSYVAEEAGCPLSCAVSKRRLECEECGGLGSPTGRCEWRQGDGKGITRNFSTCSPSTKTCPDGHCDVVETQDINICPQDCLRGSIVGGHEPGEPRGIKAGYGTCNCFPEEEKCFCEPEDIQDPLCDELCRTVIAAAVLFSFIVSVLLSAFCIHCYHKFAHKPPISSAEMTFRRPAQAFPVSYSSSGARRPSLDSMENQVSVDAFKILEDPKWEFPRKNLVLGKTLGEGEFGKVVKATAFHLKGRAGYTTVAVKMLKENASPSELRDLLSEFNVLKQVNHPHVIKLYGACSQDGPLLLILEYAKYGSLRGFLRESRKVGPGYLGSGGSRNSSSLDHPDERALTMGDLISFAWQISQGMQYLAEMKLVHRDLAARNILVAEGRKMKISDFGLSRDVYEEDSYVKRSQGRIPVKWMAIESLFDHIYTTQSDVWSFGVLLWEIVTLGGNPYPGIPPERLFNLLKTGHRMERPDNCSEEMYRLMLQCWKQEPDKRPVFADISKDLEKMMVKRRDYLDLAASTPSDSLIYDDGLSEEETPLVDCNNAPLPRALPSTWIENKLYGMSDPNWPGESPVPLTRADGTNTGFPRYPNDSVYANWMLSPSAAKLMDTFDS

[7] = target: 468 kinases (Homo sapiens, UniProt P15735); assay: biochemical; type: binding; conditions: PHKG2; read-out: % Inhibition @ 100 nM
[8] = target: 468 kinases (Homo sapiens, UniProt P19784); assay: biochemical; type: binding; conditions: CSNK2A2; read-out: % Inhibition @ 100 nM
[9] = target: 468 kinases (Homo sapiens, UniProt P22455); assay: biochemical; type: binding; conditions: FGFR4; read-out: % Inhibition @ 100 nM
468 kinases (Homo sapiens, UniProt P22455), sequence (P22455 22-802 limits assumed): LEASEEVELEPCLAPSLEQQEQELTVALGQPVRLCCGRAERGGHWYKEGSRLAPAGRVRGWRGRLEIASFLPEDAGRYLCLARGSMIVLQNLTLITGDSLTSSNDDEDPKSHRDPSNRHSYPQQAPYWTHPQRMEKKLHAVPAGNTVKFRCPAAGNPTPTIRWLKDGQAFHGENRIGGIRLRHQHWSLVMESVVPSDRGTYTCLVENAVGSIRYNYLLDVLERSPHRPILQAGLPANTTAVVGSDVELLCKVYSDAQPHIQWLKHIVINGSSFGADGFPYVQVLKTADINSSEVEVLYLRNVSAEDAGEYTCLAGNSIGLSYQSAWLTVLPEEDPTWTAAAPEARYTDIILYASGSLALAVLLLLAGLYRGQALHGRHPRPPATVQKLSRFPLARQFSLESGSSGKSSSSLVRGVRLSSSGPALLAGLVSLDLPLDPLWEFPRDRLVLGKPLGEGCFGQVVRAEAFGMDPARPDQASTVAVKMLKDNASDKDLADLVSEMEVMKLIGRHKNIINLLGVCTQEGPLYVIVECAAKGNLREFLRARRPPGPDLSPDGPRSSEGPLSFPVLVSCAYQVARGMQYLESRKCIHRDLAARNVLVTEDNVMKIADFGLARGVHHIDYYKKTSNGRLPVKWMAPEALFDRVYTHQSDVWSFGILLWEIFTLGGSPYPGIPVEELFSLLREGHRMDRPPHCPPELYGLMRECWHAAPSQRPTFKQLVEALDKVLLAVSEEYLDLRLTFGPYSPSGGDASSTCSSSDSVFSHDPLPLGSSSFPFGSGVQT

[10] = target: 468 kinases (Homo sapiens, UniProt P41240); assay: biochemical; type: binding; conditions: CSK; read-out: % Inhibition @ 100 nM
468 kinases (Homo sapiens, UniProt P41240), sequence (P41240 2-450 limits assumed): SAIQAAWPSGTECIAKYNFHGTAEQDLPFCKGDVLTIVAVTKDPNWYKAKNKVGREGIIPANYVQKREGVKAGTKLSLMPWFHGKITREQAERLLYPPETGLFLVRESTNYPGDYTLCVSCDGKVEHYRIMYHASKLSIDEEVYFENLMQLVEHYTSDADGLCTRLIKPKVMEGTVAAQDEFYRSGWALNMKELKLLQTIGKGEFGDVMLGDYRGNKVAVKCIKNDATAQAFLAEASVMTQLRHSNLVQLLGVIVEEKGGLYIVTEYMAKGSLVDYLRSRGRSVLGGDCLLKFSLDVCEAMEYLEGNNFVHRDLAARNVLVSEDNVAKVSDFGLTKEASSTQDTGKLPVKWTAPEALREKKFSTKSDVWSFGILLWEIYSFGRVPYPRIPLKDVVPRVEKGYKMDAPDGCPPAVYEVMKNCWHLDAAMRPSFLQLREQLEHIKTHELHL

[11] = target: 468 kinases (Homo sapiens, UniProt P51956); assay: biochemical; type: binding; conditions: NEK3; read-out: % Inhibition @ 100 nM
[12] = target: 468 kinases (Homo sapiens, UniProt P53779); assay: biochemical; type: binding; conditions: JNK3; read-out: % Inhibition @ 100 nM
[13] = target: 468 kinases (Homo sapiens, UniProt P78356); assay: biochemical; type: binding; conditions: PIP5K2B; read-out: % Inhibition @ 100 nM
468 kinases (Homo sapiens, UniProt P78356), sequence (P78356 2-416 limits assumed): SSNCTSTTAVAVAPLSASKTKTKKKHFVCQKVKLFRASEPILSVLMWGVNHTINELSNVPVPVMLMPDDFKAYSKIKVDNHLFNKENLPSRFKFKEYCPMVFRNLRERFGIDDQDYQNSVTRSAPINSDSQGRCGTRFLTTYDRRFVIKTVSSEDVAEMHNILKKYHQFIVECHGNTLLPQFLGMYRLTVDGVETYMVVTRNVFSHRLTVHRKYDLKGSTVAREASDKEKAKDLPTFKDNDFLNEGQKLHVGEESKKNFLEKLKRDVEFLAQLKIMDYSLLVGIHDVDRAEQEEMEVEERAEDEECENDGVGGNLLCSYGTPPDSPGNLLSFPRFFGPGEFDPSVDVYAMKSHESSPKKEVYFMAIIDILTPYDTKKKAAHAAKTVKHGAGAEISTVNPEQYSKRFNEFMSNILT

[14] = target: 468 kinases (Homo sapiens, UniProt Q02763); assay: biochemical; type: binding; conditions: TIE2; read-out: % Inhibition @ 100 nM
468 kinases (Homo sapiens, UniProt Q02763), sequence (Q02763 23-1124 limits assumed): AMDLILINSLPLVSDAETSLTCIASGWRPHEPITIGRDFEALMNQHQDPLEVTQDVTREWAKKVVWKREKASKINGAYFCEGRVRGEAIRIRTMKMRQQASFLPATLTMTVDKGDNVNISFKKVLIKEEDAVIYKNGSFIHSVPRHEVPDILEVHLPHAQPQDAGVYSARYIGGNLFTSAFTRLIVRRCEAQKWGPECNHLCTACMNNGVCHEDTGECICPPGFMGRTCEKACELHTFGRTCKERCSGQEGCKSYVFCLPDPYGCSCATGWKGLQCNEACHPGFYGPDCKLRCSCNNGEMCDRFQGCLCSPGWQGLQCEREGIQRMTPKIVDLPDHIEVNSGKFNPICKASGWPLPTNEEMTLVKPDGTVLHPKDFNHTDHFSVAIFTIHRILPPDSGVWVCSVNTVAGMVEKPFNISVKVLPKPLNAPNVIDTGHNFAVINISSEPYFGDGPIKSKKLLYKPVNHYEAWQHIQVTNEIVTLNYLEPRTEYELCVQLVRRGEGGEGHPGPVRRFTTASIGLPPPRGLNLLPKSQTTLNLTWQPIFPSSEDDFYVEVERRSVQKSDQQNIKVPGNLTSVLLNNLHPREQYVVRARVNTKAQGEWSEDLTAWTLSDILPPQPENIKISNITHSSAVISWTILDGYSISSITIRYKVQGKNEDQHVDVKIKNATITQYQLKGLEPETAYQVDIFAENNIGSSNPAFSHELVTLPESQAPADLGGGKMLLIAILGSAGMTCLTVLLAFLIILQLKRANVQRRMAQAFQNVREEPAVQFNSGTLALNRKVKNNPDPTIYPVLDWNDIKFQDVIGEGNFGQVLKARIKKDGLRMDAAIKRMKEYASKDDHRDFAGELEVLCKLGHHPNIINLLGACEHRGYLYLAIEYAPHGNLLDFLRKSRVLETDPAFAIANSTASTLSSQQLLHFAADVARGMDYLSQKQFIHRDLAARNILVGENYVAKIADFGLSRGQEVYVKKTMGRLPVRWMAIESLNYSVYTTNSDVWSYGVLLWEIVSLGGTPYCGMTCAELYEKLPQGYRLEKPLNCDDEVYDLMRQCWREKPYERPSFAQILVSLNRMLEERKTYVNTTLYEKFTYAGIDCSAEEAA

[15] = target: 468 kinases (Homo sapiens, UniProt Q13470); assay: biochemical; type: binding; conditions: TNK1; read-out: % Inhibition @ 100 nM
[16] = target: 468 kinases (Homo sapiens, UniProt Q15208); assay: biochemical; type: binding; conditions: NDR1; read-out: % Inhibition @ 100 nM
468 kinases (Homo sapiens, UniProt Q15208), sequence (Q15208 2-465 limits assumed): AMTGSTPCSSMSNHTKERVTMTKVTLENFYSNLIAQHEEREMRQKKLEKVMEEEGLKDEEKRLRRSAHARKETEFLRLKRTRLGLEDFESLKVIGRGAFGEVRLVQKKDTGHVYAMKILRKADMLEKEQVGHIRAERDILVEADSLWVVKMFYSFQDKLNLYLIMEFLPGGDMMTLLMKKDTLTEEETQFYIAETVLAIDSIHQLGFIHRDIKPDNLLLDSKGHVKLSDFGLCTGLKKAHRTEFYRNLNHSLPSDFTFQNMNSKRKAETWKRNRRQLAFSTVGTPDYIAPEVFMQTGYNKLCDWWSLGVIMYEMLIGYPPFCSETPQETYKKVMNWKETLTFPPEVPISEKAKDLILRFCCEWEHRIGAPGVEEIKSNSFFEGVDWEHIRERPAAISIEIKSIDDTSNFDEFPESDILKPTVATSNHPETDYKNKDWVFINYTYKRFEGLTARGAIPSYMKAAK

[17] = target: 468 kinases (Homo sapiens, UniProt Q15303); assay: biochemical; type: binding; conditions: ERBB4; read-out: % Inhibition @ 100 nM
[18] = target: 468 kinases (Homo sapiens, UniProt Q8IVW4); assay: biochemical; type: binding; conditions: CDKL3; read-out: % Inhibition @ 100 nM
[19] = target: 468 kinases (Homo sapiens, UniProt Q96Q40); assay: biochemical; type: binding; conditions: PFTAIRE2; read-out: % Inhibition @ 100 nM
[20] = target: 468 kinases (Homo sapiens, UniProt Q9UL54); assay: biochemical; type: binding; conditions: TAOK2; read-out: % Inhibition @ 100 nM
[21] = target: FLT1 (Homo sapiens (Human), UniProt P17948); assay: Kinome binding analysis at 100 nM, FLT1; conditions: read-out: Percentage inhibition at 100 nM, FLT1
[22] = target: 468 kinases (Homo sapiens, UniProt O94921); assay: biochemical; type: binding; conditions: PFTK1; read-out: % Inhibition @ 100 nM
[23] = target: 468 kinases (Homo sapiens, UniProt P31749); assay: biochemical; type: binding; conditions: AKT1; read-out: % Inhibition @ 100 nM
[24] = target: 468 kinases (Homo sapiens, UniProt Q13163); assay: biochemical; type: binding; conditions: MEK5; read-out: % Inhibition @ 100 nM
[25] = target: 468 kinases (Homo sapiens, UniProt Q13188); assay: biochemical; type: binding; conditions: MST2; read-out: % Inhibition @ 100 nM
[26] = target: 468 kinases (Homo sapiens, UniProt Q16512); assay: biochemical; type: binding; conditions: PKN1; read-out: % Inhibition @ 100 nM
[27] = target: 468 kinases (Homo sapiens, UniProt Q8IY84); assay: biochemical; type: binding; conditions: NIMI; read-out: % Inhibition @ 100 nM
[28] = target: 468 kinases (Homo sapiens, UniProt Q8N752); assay: biochemical; type: binding; conditions: CSNK1A1L; read-out: % Inhibition @ 100 nM
[29] = target: 468 kinases (Homo sapiens, UniProt Q9H1R3); assay: biochemical; type: binding; conditions: MYLK2; read-out: % Inhibition @ 100 nM
[30] = target: 468 kinases (Homo sapiens, UniProt Q9UEW8); assay: biochemical; type: binding; conditions: STK39; read-out: % Inhibition @ 100 nM
[31] = target: 468 kinases (Homo sapiens, UniProt Q9Y6R4); assay: biochemical; type: binding; conditions: MAP3K4; read-out: % Inhibition @ 100 nM
[32] = target: CSF1R-autoinhibited (Homo sapiens (Human), UniProt P07333); assay: Kinome binding analysis at 100 nM, CSF1R-autoinhibited; conditions: read-out: Percentage inhibition at 100 nM, CSF1R-autoinhibited
CSF1R-autoinhibited, sequence (P07333 539-972): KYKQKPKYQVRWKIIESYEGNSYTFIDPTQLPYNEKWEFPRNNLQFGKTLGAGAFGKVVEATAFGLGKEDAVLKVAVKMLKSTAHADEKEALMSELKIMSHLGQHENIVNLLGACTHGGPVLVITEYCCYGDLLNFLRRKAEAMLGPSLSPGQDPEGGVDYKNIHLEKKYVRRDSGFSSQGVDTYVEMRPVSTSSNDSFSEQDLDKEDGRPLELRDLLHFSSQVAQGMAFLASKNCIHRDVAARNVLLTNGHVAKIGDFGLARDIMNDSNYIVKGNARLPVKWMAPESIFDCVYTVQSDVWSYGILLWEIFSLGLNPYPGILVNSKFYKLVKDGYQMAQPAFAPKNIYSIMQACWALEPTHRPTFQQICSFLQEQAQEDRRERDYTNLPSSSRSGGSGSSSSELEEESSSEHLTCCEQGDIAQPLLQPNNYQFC

SMILES	inhibition at 0.1 µM [1]	inhibition at 0.1 µM [2]	inhibition at 0.1 µM ([4]; ABL1 (T3151)-nonphosphorylated)	inhibition at 0.1 µM ([4]; ABL1 (T3151)-phosphorylated)	inhibition at 0.1 µM [6]	inhibition at 0.1 µM [7]	inhibition at 0.1 µM [9]	inhibition at 0.1 µM [10]	inhibition at 0.1 µM [11]	inhibition at 0.1 µM [12]	inhibition at 0.1 µM [13]	inhibition at 0.1 µM [14]	inhibition at 0.1 µM [16]	inhibition at 0.1 µM [17]	inhibition at 0.1 µM [18]	inhibition at 0.1 µM [19]	inhibition at 0.1 µM [20]	also measured
CCN(CC)CCNC(=O)c1c(C)[nH]c(/C=C2\C(=O)Nc3ccc(CCO)cc32)c1C [Compound No. 10, (Z)—N-(2-(Diethylamino)ethyl)-5-((5-(2-hydroxyethyl)-2-oxoindolin-3-ylidene)methyl)-2,4-dimethyl-1H-pyrrole-3-carboxamide]	0%	0%	56%	91.8%	91.1%	94.4%	0%	0%	50%	0%	91.7%	0%	34%	15%	22%	0%	18%	inhibition at 0.1 µM [3]: 35%; inhibition at 0.1 µM [5]: 5%; inhibition at 0.1 µM [8]: 0%; inhibition at 0.1 µM [15]: 9%; inhibition at 0.1 µM [21]: 42%
CCN(CC)CCNC(=O)c1c(C)[nH]c(/C=C2\C(=O)Nc3ccc(CCC(N)=O)cc32)c1C [Compound No. 16, (Z)-5-((5-(3-Amino-3-oxopropyl)-2-oxoindolin-3-ylidene)methyl)-N-(2-(diethylamino)ethyl)-2,4-dimethyl-1H-pyrrole-3-carboxamide]	61%	0%	61%	86%	86%	97.2%	1%	1%	45%	55%	86%	0%	20%	6%	0%	0%	21%	inhibition at 0.1 µM [22]: 13%; inhibition at 0.1 µM [23]: 0%; inhibition at 0.1 µM [24]: 80%; inhibition at 0.1 µM [25]: 41%; inhibition at 0.1 µM [26]: 24%; inhibition at 0.1 µM [27]: 67%; inhibition at 0.1 µM [28]: 6%; inhibition at 0.1 µM [29]: 4%; inhibition at 0.1 µM [30]: 12%; inhibition at 0.1 µM [31]: 8%; inhibition at 0.1 µM [32]: 14%
